From the NIST ThermoML archive (doi:10.1016/j.jct.2005.04.017)
± gives the expanded uncertainty stated by the source.

Assay: mn = molality of the nth substance listed, in mol/kg
Conditions: Liquid, Capillary tube (Ostwald / Ubbelohde) method

O=[N+]([O-])[O-].O=[N+]([O-])[O-].[Ni+2] [nickel(II) nitrate] + O
viscosity [mPa·s]
Conditions | 100 kPa | 10000 kPa | 20000 kPa | 30000 kPa
297.86 K, m1 = 1.824 | 1.671 ± 0.031 | 1.672 ± 0.031 | 1.672 ± 0.031 | 1.673 ± 0.031
297.86 K, m1 = 2.246 | 1.973 ± 0.037 | 1.973 ± 0.037 | 1.974 ± 0.037 | 1.974 ± 0.037
297.98 K, m1 = 0.608 | 1.078 ± 0.018 | 1.077 ± 0.018 | 1.077 ± 0.018 | 1.078 ± 0.018
298.43 K, m1 = 0.218 | 0.9454 ± 0.016 | 0.9468 ± 0.016 | 0.9471 ± 0.016 | 0.9482 ± 0.016
298.64 K, m1 = 0.951 | 1.193 ± 0.021 | 1.194 ± 0.021 | 1.194 ± 0.021 | 1.194 ± 0.021
298.65 K, m1 = 0.153 | 0.9231 ± 0.016 | 0.9246 ± 0.016 | 0.9251 ± 0.016 | 0.9261 ± 0.016
298.65 K, m1 = 0.288 | 0.9601 ± 0.016 | 0.9606 ± 0.016 | 0.961 ± 0.016 | 0.962 ± 0.016
299.24 K, m1 = 0.05 | 0.884 ± 0.015 | 0.8839 ± 0.015 | 0.8843 ± 0.015 | 0.8845 ± 0.015
299.76 K, m1 = 1.368 | 1.348 ± 0.024 | 1.348 ± 0.024 | 1.349 ± 0.024 | 1.35 ± 0.024
309.84 K, m1 = 2.246 | 1.537 ± 0.03 | 1.539 ± 0.029 | 1.542 ± 0.029 | 1.545 ± 0.03
321.54 K, m1 = 0.05 | 0.5771 ± 0.0099 | 0.579 ± 0.0099 | 0.5797 ± 0.0099 | 0.582 ± 0.01
322.46 K, m1 = 2.246 | 1.225 ± 0.023 | 1.231 ± 0.023 | 1.236 ± 0.023 | 1.241 ± 0.023
322.56 K, m1 = 0.153 | 0.5821 ± 0.01 | 0.5872 ± 0.01 | 0.592 ± 0.01 | 0.5938 ± 0.01
322.56 K, m1 = 0.288 | 0.6103 ± 0.01 | 0.6122 ± 0.01 | 0.613 ± 0.01 | 0.6145 ± 0.01
323.46 K, m1 = 0.608 | 0.6691 ± 0.011 | 0.6724 ± 0.012 | 0.6754 ± 0.012 | 0.6781 ± 0.012
323.67 K, m1 = 0.951 | 0.7503 ± 0.013 | 0.7533 ± 0.013 | 0.7564 ± 0.013 | 0.7595 ± 0.013
323.74 K, m1 = 0.218 | 0.5854 ± 0.01 | 0.5895 ± 0.01 | 0.5944 ± 0.01 | 0.5968 ± 0.01
324.76 K, m1 = 1.824 | 1.026 ± 0.019 | 1.031 ± 0.019 | 1.036 ± 0.019 | 1.04 ± 0.019
326.78 K, m1 = 1.368 | 0.8295 ± 0.015 | 0.8341 ± 0.015 | 0.8376 ± 0.015 | 0.8422 ± 0.015
330.84 K, m1 = 2.246 | 1.072 ± 0.02 | 1.078 ± 0.02 | 1.082 ± 0.02 | 1.089 ± 0.02
338.46 K, m1 = 1.368 | 0.703 ± 0.013 | 0.7074 ± 0.013 | 0.7123 ± 0.013 | 0.7174 ± 0.013
347.43 K, m1 = 0.288 | 0.4289 ± 0.0074 | 0.4346 ± 0.0076 | 0.4376 ± 0.0076 | 0.4422 ± 0.0078
347.65 K, m1 = 0.05 | 0.3939 ± 0.0068 | 0.3949 ± 0.0069 | 0.3964 ± 0.0069 | 0.4013 ± 0.007
347.82 K, m1 = 2.246 | 0.843 ± 0.016 | 0.8486 ± 0.016 | 0.8534 ± 0.016 | 0.8621 ± 0.016
347.94 K, m1 = 0.218 | 0.4152 ± 0.0072 | 0.4194 ± 0.0073 | 0.4228 ± 0.0073 | 0.426 ± 0.0074
348.89 K, m1 = 0.153 | 0.401 ± 0.007 | 0.4057 ± 0.007 | 0.4091 ± 0.0071 | 0.4122 ± 0.0072
349.46 K, m1 = 0.951 | 0.5292 ± 0.0093 | 0.5331 ± 0.0093 | 0.5374 ± 0.0094 | 0.5411 ± 0.0095
349.76 K, m1 = 0.608 | 0.4664 ± 0.0081 | 0.4708 ± 0.0082 | 0.4742 ± 0.0082 | 0.4779 ± 0.0083
349.76 K, m1 = 1.368 | 0.6103 ± 0.011 | 0.6146 ± 0.011 | 0.6194 ± 0.011 | 0.6253 ± 0.011
349.76 K, m1 = 1.824 | 0.722 ± 0.013 | 0.728 ± 0.013 | 0.7335 ± 0.013 | 0.738 ± 0.013
364.21 K, m1 = 2.246 | 0.6918 ± 0.012 | 0.698 ± 0.013 | 0.705 ± 0.013 | 0.7104 ± 0.013
372.46 K, m1 = 0.153 | 0.3059 ± 0.0054 | 0.3101 ± 0.0055 | 0.314 ± 0.0055 | 0.3166 ± 0.0056
372.48 K, m1 = 0.218 | 0.3134 ± 0.0055 | 0.3179 ± 0.0056 | 0.3212 ± 0.0056 | 0.3248 ± 0.0057
372.49 K, m1 = 1.368 | – | 0.4771 ± 0.0086 | 0.4824 ± 0.0086 | 0.4869 ± 0.0087
372.54 K, m1 = 0.05 | 0.2921 ± 0.0051 | 0.2949 ± 0.0052 | 0.2984 ± 0.0053 | 0.3015 ± 0.0053
372.84 K, m1 = 1.824 | 0.5558 ± 0.01 | 0.5612 ± 0.01 | 0.5672 ± 0.01 | 0.5721 ± 0.01
373.06 K, m1 = 0.288 | – | 0.3246 ± 0.0058 | 0.3275 ± 0.0058 | 0.3318 ± 0.0059
373.82 K, m1 = 0.608 | – | 0.36 ± 0.0063 | 0.3643 ± 0.0064 | 0.3681 ± 0.0065
375.48 K, m1 = 2.246 | – | 0.619 ± 0.011 | 0.6251 ± 0.011 | 0.6322 ± 0.012
375.81 K, m1 = 0.951 | 0.395 ± 0.007 | 0.399 ± 0.0071 | 0.4042 ± 0.0072 | 0.407 ± 0.0072
394.58 K, m1 = 2.246 | – | 0.5162 ± 0.0095 | 0.5211 ± 0.0095 | 0.5279 ± 0.0097
394.68 K, m1 = 0.05 | – | 0.2391 ± 0.0043 | 0.2416 ± 0.0043 | 0.2449 ± 0.0044
396.43 K, m1 = 0.951 | – | 0.3329 ± 0.0059 | 0.3365 ± 0.006 | 0.3403 ± 0.0061
397.82 K, m1 = 0.153 | – | 0.2441 ± 0.0044 | 0.2474 ± 0.0044 | 0.2509 ± 0.0045
398.42 K, m1 = 0.288 | – | 0.2566 ± 0.0046 | 0.2608 ± 0.0047 | 0.2633 ± 0.0047
398.49 K, m1 = 0.608 | – | 0.289 ± 0.0051 | 0.293 ± 0.0052 | 0.2967 ± 0.0053
398.61 K, m1 = 0.218 | – | 0.249 ± 0.0044 | 0.2532 ± 0.0045 | 0.2549 ± 0.0045
399.46 K, m1 = 1.368 | – | 0.3743 ± 0.0068 | 0.3789 ± 0.0069 | 0.384 ± 0.0069
399.46 K, m1 = 1.824 | – | 0.4393 ± 0.008 | 0.4445 ± 0.0081 | 0.4496 ± 0.0082
412.58 K, m1 = 2.246 | – | 0.4452 ± 0.0081 | 0.4505 ± 0.0082 | 0.4568 ± 0.0083
416.89 K, m1 = 1.368 | – | 0.327 ± 0.0059 | 0.3311 ± 0.006 | 0.3363 ± 0.0061
421.95 K, m1 = 0.05 | – | 0.1929 ± 0.0035 | 0.1958 ± 0.0036 | 0.1985 ± 0.0036
422.49 K, m1 = 1.824 | – | 0.3682 ± 0.0067 | 0.3726 ± 0.0068 | 0.378 ± 0.0069
422.81 K, m1 = 0.288 | – | 0.2142 ± 0.0039 | 0.2168 ± 0.0039 | 0.2198 ± 0.004
422.83 K, m1 = 0.951 | – | 0.2731 ± 0.0049 | 0.2767 ± 0.005 | 0.2807 ± 0.005
423.73 K, m1 = 0.608 | – | 0.2402 ± 0.0043 | 0.2435 ± 0.0044 | 0.2468 ± 0.0044
424.57 K, m1 = 0.153 | – | 0.1989 ± 0.0036 | 0.203 ± 0.0037 | 0.205 ± 0.0037
424.57 K, m1 = 0.218 | – | 0.2053 ± 0.0037 | 0.2081 ± 0.0038 | 0.2119 ± 0.0038
426.84 K, m1 = 2.246 | – | 0.4007 ± 0.0074 | 0.4063 ± 0.0075 | 0.4124 ± 0.0076
426.89 K, m1 = 1.368 | – | 0.3051 ± 0.0056 | 0.3095 ± 0.0056 | 0.3134 ± 0.0057
446.79 K, m1 = 2.246 | – | 0.3515 ± 0.0065 | 0.3578 ± 0.0066 | 0.3622 ± 0.0067
447.26 K, m1 = 1.368 | – | 0.2684 ± 0.0049 | 0.2714 ± 0.005 | 0.276 ± 0.005
448.24 K, m1 = 1.824 | – | 0.3116 ± 0.0057 | 0.3159 ± 0.0058 | 0.3211 ± 0.0059
448.96 K, m1 = 0.288 | – | 0.1818 ± 0.0033 | 0.1845 ± 0.0034 | 0.1878 ± 0.0034
449.28 K, m1 = 0.153 | – | 0.1703 ± 0.0031 | 0.1741 ± 0.0032 | 0.1764 ± 0.0032
449.46 K, m1 = 0.608 | – | 0.205 ± 0.0037 | 0.2085 ± 0.0038 | 0.2114 ± 0.0038
449.48 K, m1 = 0.951 | – | 0.2309 ± 0.0042 | 0.2347 ± 0.0043 | 0.2382 ± 0.0043
449.65 K, m1 = 0.05 | – | 0.1611 ± 0.003 | 0.1639 ± 0.003 | 0.1661 ± 0.0031
449.72 K, m1 = 0.218 | – | 0.175 ± 0.0032 | 0.1778 ± 0.0033 | 0.1807 ± 0.0033
471.51 K, m1 = 0.153 | – | 0.151 ± 0.0028 | 0.1534 ± 0.0029 | 0.1565 ± 0.0029
472.15 K, m1 = 0.05 | – | 0.142 ± 0.0027 | 0.1447 ± 0.0027 | 0.1468 ± 0.0028
472.46 K, m1 = 2.246 | – | 0.304 ± 0.0056 | 0.3094 ± 0.0057 | 0.314 ± 0.0058
473.12 K, m1 = 1.824 | – | 0.2716 ± 0.005 | 0.2768 ± 0.0051 | 0.2808 ± 0.0052
473.87 K, m1 = 0.288 | – | 0.1591 ± 0.003 | 0.1628 ± 0.003 | 0.1645 ± 0.003
474.24 K, m1 = 0.218 | – | 0.1536 ± 0.0029 | 0.156 ± 0.0029 | 0.1592 ± 0.003
474.83 K, m1 = 0.608 | – | 0.1805 ± 0.0033 | 0.1834 ± 0.0034 | 0.186 ± 0.0034
475.84 K, m1 = 1.368 | – | 0.23 ± 0.0042 | 0.2342 ± 0.0043 | 0.2375 ± 0.0044
